Measurements reported in ChEMBL document CHEMBL1152860, “Synthesis and antiproliferative activity of 3-amino-N-phenyl-1H-indazole-1-carboxamides” (2009).
Activity calls are given as the source filed them. The rule behind the calls is not given here.

Key:
K562 [1] = assay: Growth inhibition of human K562 cells after 48 hrs by SRB assay; assay type: functional; details: K562, 48 h
K562 [2] = assay: Growth inhibition of drug-resistant human K562 cells after 48 hrs by SRB assay; assay type: functional; details: K562, 48 h
K562 [3] = assay: Cell cycle arrest in human K562 cells assessed as accumulation at G2/M phase at 180 uM after 24 hrs using propidium iodide staining by flow cytometry; assay type: functional, cell-based
NCI-H226 = assay: Growth inhibition of human NCI-H226 cells after 48 hrs by SRB assay; assay type: functional; details: NCI-H226, 48 h
TK-10 = assay: Growth inhibition of human TK10 cells after 48 hrs by SRB assay; assay type: functional; details: TK-10, 48 h
LOX IMVI = assay: Growth inhibition of human LOXIMVI cells after 48 hrs by SRB assay; assay type: functional
SNB-75 = assay: Growth inhibition of human SNB75 cells after 48 hrs by SRB assay; assay type: functional; details: SNB-75, 48 h
MOLT-4 = assay: Growth inhibition of human MOLT4 cells after 48 hrs by SRB assay; assay type: functional; details: MOLT-4, 48 h
SF-539 = assay: Growth inhibition of human SF539 cells after 48 hrs by SRB assay; assay type: functional; details: SF-539, 48 h
SK-MEL-5 = assay: Growth inhibition of human SK-MEL-5 cells after 48 hrs by SRB assay; assay type: functional; details: SK-MEL-5, 48 h
SR = assay: Growth inhibition of human SR cells after 48 hrs by SRB assay; assay type: functional
A549 = assay: Growth inhibition of human A549 cells after 48 hrs by SRB assay; assay type: functional; details: A549, 48 h
HOP-62 = assay: Growth inhibition of human HOP62 cells after 48 hrs by SRB assay; assay type: functional; details: HOP-62, 48 h
SF-268 = assay: Growth inhibition of human SF268 cells after 48 hrs by SRB assay; assay type: functional; details: SF-268, 48 h
OVCAR-5 = assay: Growth inhibition of human OVCAR5 cells after 48 hrs by SRB assay; assay type: functional; details: OVCAR-5, 48 h
NCI/ADR-RES = assay: Growth inhibition of human NCI/ADR-RES cells after 48 hrs by SRB assay; assay type: functional
BT-549 = assay: Growth inhibition of human BT549 cells after 48 hrs by SRB assay; assay type: functional; details: BT-549, 48 h
NCI-H522 = assay: Growth inhibition of human NCI-H522 cells after 48 hrs by SRB assay; assay type: functional; details: NCI-H522, 48 h
MCF7 = assay: Growth inhibition of human MCF7 cells after 48 hrs by SRB assay; assay type: functional; details: MCF7, 48 h
UACC-257 = assay: Growth inhibition of human UACC257 cells after 48 hrs by SRB assay; assay type: functional; details: UACC-257, 48 h
T47D = assay: Growth inhibition of human T47D cells after 48 hrs by SRB assay; assay type: functional
SK-MEL-28 = assay: Growth inhibition of human SK-MEL-28 cells after 48 hrs by SRB assay; assay type: functional; details: SK-MEL-28, 48 h
[4] = Growth inhibition of human Hs 578T cells after 48 hrs by SRB assay; assay type: functional
HL-60(TB) = assay: Growth inhibition of human HL-60(TB) cells after 48 hrs by SRB assay; assay type: functional; details: HL-60, 48 h
NCI-H460 = assay: Growth inhibition of human NCI-H460 cells after 48 hrs by SRB assay; assay type: functional; details: NCI-H460, 48 h
PC-3 = assay: Growth inhibition of human PC3 cells after 48 hrs by SRB assay; assay type: functional; details: PC-3, 48 h
MDA-MB-435 = assay: Growth inhibition of human MDA-MB-435 cells after 48 hrs by SRB assay; assay type: functional; details: MDA-MB-435, 48 h
RXF 393 = assay: Growth inhibition of human […] cells after 48 hrs by SRB assay; assay type: functional; details: RXF 393, 48 h
Malme-3M = assay: Growth inhibition of human MALME-3M cells after 48 hrs by SRB assay; assay type: functional
NCI-H322M = assay: Growth inhibition of human NCI-H322M cells after 48 hrs by SRB assay; assay type: functional
UACC-62 = assay: Growth inhibition of human UACC62 cells after 48 hrs by SRB assay; assay type: functional; details: UACC-62, 48 h
HCC 2998 = assay: Growth inhibition of human HCC2998 cells after 48 hrs by SRB assay; assay type: functional; details: HCC 2998, 48 h
K562 [5] = assay: Cell cycle arrest in human K562 cells assessed as accumulation at S phase at 180 uM after 24 hrs using propidium iodide staining by flow cytometry; assay type: functional, cell-based
RPMI-8226 = assay: Growth inhibition of human RPMI8226 cells after 48 hrs by SRB assay; assay type: functional; details: RPMI-8226, 48 h
M14 = assay: Growth inhibition of human M14 cells after 48 hrs by SRB assay; assay type: functional; details: M14, 48 h
NCI-H23 = assay: Growth inhibition of human NCI-H23 cells after 48 hrs by SRB assay; assay type: functional; details: NCI-H23, 48 h
SW-620 = assay: Growth inhibition of human SW620 cells after 48 hrs by SRB assay; assay type: functional; details: SW-620, 48 h
A498 = assay: Growth inhibition of human A498 cells after 48 hrs by SRB assay; assay type: functional; details: A498, 48 h
SF-295 = assay: Growth inhibition of human SF295 cells after 48 hrs by SRB assay; assay type: functional; details: SF-295, 48 h
IGROV-1 = assay: Growth inhibition of human IGROV1 cells after 48 hrs by SRB assay; assay type: functional; details: IGROV-1, 48 h
OVCAR-3 = assay: Growth inhibition of human OVCAR-3 cells after 48 hrs by SRB assay; assay type: functional; details: OVCAR-3, 48 h
DU-145 = assay: Growth inhibition of human DU145 cells after 48 hrs by SRB assay; assay type: functional; details: DU-145, 48 h
MDA-MB-231 = assay: Growth inhibition of human MDA-MB-231 cells after 48 hrs by SRB assay; assay type: functional; details: MDA-MB-231, 48 h
CAKI-1 = assay: Growth inhibition of human Caki1 cells after 48 hrs by SRB assay; assay type: functional; details: CAKI-1, 48 h
ACHN = assay: Growth inhibition of human ACHN cells after 48 hrs by SRB assay; assay type: functional
SK-OV-3 = assay: Growth inhibition of human SKOV3 cells after 48 hrs by SRB assay; assay type: functional; details: SK-OV-3, 48 h
HOP-92 = assay: Growth inhibition of human HOP92 cells after 48 hrs by SRB assay; assay type: functional; details: HOP-92, 48 h
EKVX = assay: Growth inhibition of human EKVX cells after 48 hrs by SRB assay; assay type: functional
OVCAR-4 = assay: Growth inhibition of human OVCAR4 cells after 48 hrs by SRB assay; assay type: functional; details: OVCAR-4, 48 h
SN12C = assay: Growth inhibition of human SN12C cells after 48 hrs by SRB assay; assay type: functional
COLO 205 = assay: Growth inhibition of human COLO205 cells after 48 hrs by SRB assay; assay type: functional; details: COLO 205, 48 h
HCT-116 = assay: Growth inhibition of human HCT116 cells after 48 hrs by SRB assay; assay type: functional; details: HCT-116, 48 h
U-251 = assay: Growth inhibition of human U251 cells after 48 hrs by SRB assay; assay type: functional; details: U-251, 48 h
HT-29 = assay: Growth inhibition of human HT-29 cells after 48 hrs by SRB assay; assay type: functional; details: HT-29, 48 h
CCRF-CEM = assay: Growth inhibition of human CCRF-CEM cells after 48 hrs by SRB assay; assay type: functional
786-0 = assay: Growth inhibition of human 786-0 cells after 48 hrs by SRB assay; assay type: functional; details: 786-0, 48 h
KM12 = assay: Growth inhibition of human KM12 cells after 48 hrs by SRB assay; assay type: functional; details: KM12, 48 h
HCT-15 = assay: Growth inhibition of human HCT15 cells after 48 hrs by SRB assay; assay type: functional; details: HCT-15, 48 h
SNB-19 = assay: Growth inhibition of human SNB19 cells after 48 hrs by SRB assay; assay type: functional; details: SNB-19, 48 h
UO-31 = assay: Growth inhibition of human UO31 cells after 48 hrs by SRB assay; assay type: functional; details: UO-31, 48 h
OVCAR-8 = assay: Growth inhibition of human OVCAR8 cells after 48 hrs by SRB assay; assay type: functional; details: OVCAR-8, 48 h

CCc1nc2cc(Cl)ccc2c(=O)n1-c1n[nH]c2ccccc12
GI50 (K562 [1]): 10.7 µM
GI50 (K562 [2]): 11.7 µM

COc1ccccc1NC(=O)n1nc(N)c2ccccc21
Activity (K562 [3]): Active
GI50 (NCI-H226): > 100 µM
GI50 (TK-10): 74.3 µM
GI50 (LOX IMVI): 92.1 µM
GI50 (SNB-75): 37 µM
GI50 (MOLT-4): 54 µM
GI50 (SF-539): 60.9 µM
GI50 (SK-MEL-5): > 100 µM
GI50 (SR): 92.5 µM
GI50 (A549): > 100 µM
GI50 (HOP-62): 100 µM
GI50 (SF-268): > 100 µM
GI50 (OVCAR-5): > 100 µM
GI50 (NCI/ADR-RES): 90.7 µM
GI50 (BT-549): 28 µM
GI50 (NCI-H522): 49.5 µM
GI50 (MCF7): 0.269 µM
TGI (MCF7): 64.6 µM
CC50 (MCF7; read-out: LC50 (the source's name)): > 100 µM
GI50 (UACC-257): > 100 µM
GI50 (T47D): > 100 µM
GI50 (SK-MEL-28): > 100 µM
GI50 [4]: 33.8 µM
GI50 (HL-60(TB)): 47.2 µM
GI50 (NCI-H460): 78.9 µM
GI50 (PC-3): 83.1 µM
GI50 (MDA-MB-435): > 100 µM
GI50 (RXF 393): 45.7 µM
GI50 (Malme-3M): > 100 µM
GI50 (NCI-H322M): > 100 µM
GI50 (UACC-62): > 100 µM
GI50 (HCC 2998): 66.2 µM
Activity (K562 [5]): Active
GI50 (RPMI-8226): 86 µM
GI50 (M14): > 100 µM
GI50 (NCI-H23): > 100 µM
GI50 (SW-620): > 100 µM
GI50 (A498): > 100 µM
GI50 (SF-295): 56.6 µM
GI50 (IGROV-1): 27.3 µM
GI50 (OVCAR-3): > 100 µM
GI50 (DU-145): > 100 µM
GI50 (MDA-MB-231): 46.1 µM
GI50 (CAKI-1): > 100 µM
GI50 (ACHN): > 100 µM
GI50 (SK-OV-3): > 100 µM
GI50 (K562 [1]): > 100 µM
GI50 (HOP-92): 30.2 µM
GI50 (EKVX): 44.8 µM
GI50 (OVCAR-4): > 100 µM
GI50 (SN12C): > 100 µM
GI50 (COLO 205): > 100 µM
GI50 (HCT-116): > 100 µM
GI50 (U-251): 98.7 µM
GI50 (HT-29): > 100 µM
GI50 (CCRF-CEM): > 100 µM
GI50 (786-0): > 100 µM
GI50 (KM12): 39.1 µM
GI50 (HCT-15): 73.6 µM
GI50 (SNB-19): > 100 µM
GI50 (UO-31): > 100 µM
GI50 (OVCAR-8): > 100 µM
